Results reported in US20040147494A1, “Use” (priority 2001, published 2004).
One block for each compound: values may come before it.

Experiments:
11 β-HSD type 2 = molecular target: T1, 11 β-HSD type 2 (Rattus norvegicus, UniProt P50233); assay: biochemical; conditions: rat kidney cytosol 150 μL, 60 min, 37° C., cortisol (F) to cortisone (E), vs control without inhibitor, means n=2; for inhibition at 10 µM: read-out: % […]→E ± SD, inhibitor 10 μM, read-out: % INHIBITION F→E ± SD
T1 construct: Both the kidneys and livers were homogenised on ice in PBS- sucrose buffer; tissue Harlan Olac, Bicester, Oxon, UK (rats); host or cells: rat kidney homogenate supernatant (Wistar rat)
T1 sequence (P50233 1-400): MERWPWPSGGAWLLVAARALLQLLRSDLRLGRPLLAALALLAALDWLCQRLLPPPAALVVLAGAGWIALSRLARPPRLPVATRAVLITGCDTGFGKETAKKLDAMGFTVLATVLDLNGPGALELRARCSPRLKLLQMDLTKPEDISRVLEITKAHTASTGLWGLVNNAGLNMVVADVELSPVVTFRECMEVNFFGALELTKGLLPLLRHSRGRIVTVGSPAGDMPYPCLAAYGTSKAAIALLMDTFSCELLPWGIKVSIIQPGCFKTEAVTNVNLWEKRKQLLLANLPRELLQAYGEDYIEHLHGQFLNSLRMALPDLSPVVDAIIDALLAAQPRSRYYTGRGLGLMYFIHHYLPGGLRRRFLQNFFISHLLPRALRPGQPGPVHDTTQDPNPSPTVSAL
Protocol: Enzymes—Rat livers and rat kidneys were obtained from normal Wistar rats (Harlan Olac, Bicester, Oxon,UK). Both the kidneys and livers were homogenised on ice in PBS- sucrose buffer (1 g/10 ml) using an Ultra-Turrax. After the livers and kidneys were homogenised the homogenate was centrifuged for five minutes at 4000 rpm. The supernatant obtained was removed and stored in glass vials at −20° C. The amount of protein per μl of rat liver and kidney cytosol was determined using the Bradford method.
The same procedure was used for the 11 β-HSD type 2 assay, the conversion F to E, to determine the amount of rat kidney to be used and the incubation time.
In these assays the influence of different inhibitors on the 11 β-HSD activity both in reductive (type 1) and oxidative (type 2) directions were assessed. In the reductive direction E is the substrate and F the product and visa versa in the case of oxidation. The method described here is for the oxidative direction.
The substrate solution contained about 50,000 cpm/ml ^3H—F in PBS-sucrose and 0.5 pM F. 1 ml of the substrate solution was added to each tube, the inhibitors were also added, at a 10 μM concentration, to each tube except to the “control” and “blank” tubes. 150 μL was added to all tubes except to the blanks, this was done to correct for the amount of ^3H[…]. The tubes were incubated for 60 minutes in a mechanically shaken water bath at 37° C. […] After incubation 50 μL of recovery was added to correct for the losses made in the next steps, containing 5000 cpm/50 μL of ^14C-E and 50 μg/50 μL of unlabelled E (to visualise the spot on the TLC-plate). The aqueous mixture was then extracted with 4 ml of ether (2×30 sec cycle, vortex mix). After freezing the aqueous phase, the ether (upper) layer was decanted into smaller tubes and evaporated at 45° C. until completely dry. The residue was then re-dissolved in 6 drops of ether and transferred to a TLC-plate. The TLC-plate was developed in chloroform:methanol (9:1 v/v) solvent system, the TLC-plate ran for about 90 minutes until the solvent front had moved about 18 cm. The position of the product E was visualised under UV-light and cut out from the TLC-plate and put into scintillation vials. Radioactivity was eluted over 5 minutes with 0.5 ml methanol. 0.5 ml of PBS- sucrose and 10 ml of Ecoscint were then added and vortex mixed before counting in the scintillation counter. Before counting the samples, two total activity vials were prepared. These contained 0.5 ml of the substrate solution, 50 μL of the recovery, 0.5 ml of methanol and 10 ml of Ecoscint. These two total activity vials were needed to determine the amount of ^14C-E and ^3H—F added in the beginning to make the calculations.
To look at the percentage of inhibition four different concentrations, 1, 5, 10 and 20 μM, were used. The method for both the rat liver, type 1 the reductive, and rat kidney, type 2 the oxidative, stay the same throughout the entire experiment.
In this experiment the influence of different inhibitors on the conversion E to F and F to E was determined. The reason why inhibition in both directions was examined was to make a comparison between the inhibitors and which type of 11 β-HSD they inhibit more. Thirty-two compounds were screened for their ability to inhibit 11 β-HSD type 1 (E to F) and type 2 (F to E). […] The percent of inhibition was calculated as the percentage of decrease in radio labelled ^3H-E and ^3H—F of product formed, compared with the control activity (the tubes without an inhibitor in it). All the results calculated are means, n=2.

11 β-HSD type 1 = molecular target: T2, 11 β-HSD type 1 (Rattus norvegicus, UniProt P16232); assay: biochemical; type: biochemical; conditions: rat liver cytosol 25 μL, 90 min, 37° C., cortisone (E) to cortisol (F), vs control without inhibitor, means n=2; for inhibition at 10 µM: read-out: % […]→F ± SD, inhibitor 10 μM, read-out: % INHIBITION E→F ± SD
T2 construct: Both the kidneys and livers were homogenised on ice in PBS- sucrose buffer; tissue Harlan Olac, Bicester, Oxon, UK (rats); host or cells: rat liver homogenate supernatant (Wistar rat)
T2 sequence (P16232 whole entry): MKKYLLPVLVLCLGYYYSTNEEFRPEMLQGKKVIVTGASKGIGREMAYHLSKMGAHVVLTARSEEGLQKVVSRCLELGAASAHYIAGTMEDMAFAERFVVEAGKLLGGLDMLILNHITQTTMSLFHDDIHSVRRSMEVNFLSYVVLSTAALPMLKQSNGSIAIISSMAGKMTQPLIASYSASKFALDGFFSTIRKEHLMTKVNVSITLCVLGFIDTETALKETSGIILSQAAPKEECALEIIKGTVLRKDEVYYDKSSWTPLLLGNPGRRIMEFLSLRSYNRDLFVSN

SMILES: CC(C)(C)OC(=O)[C@@]1(C)CC[C@]2(C)CC[C@]3(C)C(=CC(=O)C4[C@@]5(C)CC[C@H](O)C(C)(C)C5CC[C@]43C)[C@@H]2C1 (stereo partly drawn)
melting point: 171 to 174 °C

melting point: 171 to 172 °C
SMILES: CC1(C)C2CC[C@]3(C)C(C(=O)C=C4[C@@H]5C[C@@](C)(C(=O)OCCc6ccccc6)CC[C@]5(C)CC[C@]43C)[C@@]2(C)CC[C@@H]1O (stereo partly drawn)

melting point: 114 to 116 °C
SMILES: CC1(C)C2CC[C@]3(C)C(C(=O)C=C4[C@@H]5C[C@@](C)(C(=O)OCCCc6ccccc6)CC[C@]5(C)CC[C@]43C)[C@@]2(C)CC[C@H]1O (stereo partly drawn)

melting point: 271 to 273 °C (dec.)
SMILES: CC(C)OC(=O)[C@@]1(C)CC[C@]2(C)CC[C@]3(C)C(=CC(=O)C4[C@@]5(C)CC[C@H](O)C(C)(C)C5CC[C@]43C)[C@@H]2C1 (stereo partly drawn)

melting point: 153 to 155 °C
SMILES: CC1(C)C2CC[C@]3(C)C(CC=C4[C@@H]5C[C@@](C)(C(=O)OCCc6ccccc6)CC[C@]5(C)CC[C@]43C)[C@@]2(C)CC[C@@H]1O (stereo partly drawn)

SMILES: CC(O)C1CCC2C3CCC4=C[C@@H](O)CC[C@]4(C)C3[C@H](O)C[C@]12C (stereo in doubt) [STX125, 3,11,20-Trihydroxyproqesterone]
inhibition at 10 µM (11 β-HSD type 2): 72.2 ± 4.3%
melting point: 122 to 125 °C
inhibition at 10 µM (11 β-HSD type 1): 85.1 ± 3.4%

SMILES: CC(O)C1CCC2C3CCC4=C[C@@H](O)CC[C@]4(C)C3[C@H](OCc3ccccc3)C[C@]12C (stereo in doubt) [STX-126, 11α-benzyloxy-3,20-dihydroxyprogesterone]
inhibition at 10 µM (11 β-HSD type 2): 13.5 ± 2.97%
melting point: 117 to 118 °C
inhibition at 10 µM (11 β-HSD type 1): 33.8 ± 0.354%

SMILES: COC(=O)[C@@]1(C)CC[C@]2(C)CC[C@]3(C)C(=CCC4[C@@]5(C)CC[C@H](O)C(C)(C)C5CC[C@]43C)[C@@H]2C1 (stereo partly drawn) [DG 383 B]
melting point: 291 to 293 °C

SMILES: COC(=O)[C@@]1(C)CC[C@]2(C)CC[C@]3(C)C(=CCC4[C@@]5(C)CC[C@H](O)C(C)(C)C5CC[C@]43C)[C@@H]2C1 (stereo partly drawn) [DGS01092 B]
melting point: 135 to 137 °C

SMILES: CC(=O)C1CCC2C3CCC4=CC(=O)CC[C@]4(C)C3C(=O)C[C@]12C (stereo partly drawn) [STX124, 11-Oxo-progesterone]
inhibition at 10 µM (11 β-HSD type 2): 92.6 ± 2.1%
melting point: 182 to 183 °C
inhibition at 10 µM (11 β-HSD type 1): 100 ± 6.8%

SMILES: CO[C@@H]1C[C@]2(C)C(C(C)=O)CCC2C2CCC3=CC(=O)CC[C@]3(C)C21 (stereo partly drawn) [STX193, 11α-Methoxyprogesterone]
inhibition at 10 µM (11 β-HSD type 2): 68.2 ± 3.68%
melting point: 164 to 165 °C
inhibition at 10 µM (11 β-HSD type 1): 48.1 ± 0.313%

SMILES: CCOC(=O)[C@@]1(C)CC[C@]2(C)CC[C@]3(C)C(=CC(=O)C4[C@@]5(C)CC[C@H](O)C(C)(C)C5CC[C@]43C)[C@@H]2C1 (stereo partly drawn) [STX196, 3β-hydroxy-11-oxo-18β-glycyrrhetinic acid ethyl ester]
inhibition at 10 µM (11 β-HSD type 2): 97.5 ± 1.37%
melting point: 93 to 94 °C
inhibition at 10 µM (11 β-HSD type 1): 80.7 ± 2.14%

SMILES: CC1(C)C2CC[C@]3(C)C(C(=O)C=C4[C@@H]5C[C@@](C)(C(=O)OCC6CCCCC6)CC[C@]5(C)CC[C@]43C)[C@@]2(C)CC[C@@H]1O (stereo partly drawn) [STX198, 3β-hydroxy-11-oxo-18β-glycyrrhetinic acid cyclohexylmethyl ester]
% INHIBITION F→E ± SD (11 β-HSD type 2; inhibitor 10 μM, 10 µM): 33.1 ± 1.838%
inhibition at 10 µM (11 β-HSD type 2): 33%
melting point: 98 to 99 °C
inhibition at 10 µM (11 β-HSD type 1): 52.3 ± 1.25%

SMILES: CC(=O)C1CCC2C3CCC4=CC(=O)CC[C@]4(C)C3[C@H](OCc3ccccc3)C[C@]12C (stereo partly drawn) [STX 185, 11α-Benzyloxyprogesterone]
inhibition at 10 µM (11 β-HSD type 2): 18.9 ± 4.2%
melting point: 207 to 210 °C
% INHIBITION E→F ± SD (11 β-HSD type 1; inhibitor 10 μM, 10 µM): 16.1 ± 10.4%
inhibition at 10 µM (11 β-HSD type 1): 14%

SMILES: CC(=O)O[C@H]1CC[C@@]2(C)C(CC[C@]3(C)C2CC=C2[C@@H]4C[C@@](C)(C(=O)OCc5ccccc5)CC[C@]4(C)CC[C@]23C)C1(C)C (stereo partly drawn) [STX 354, 11-Deoxo-3β-aectoxy-18β-glycyrrhetinic acid benzyl ester]
inhibition at 10 µM (11 β-HSD type 2): 13.6 ± 1.42%
melting point: 207 to 208 °C
inhibition at 10 µM (11 β-HSD type 1): -1.18 ± 9.22%
